Reference: publication PMC9044549 (RSC Advances, 2021)

How the values were obtained:
[1] = test system: MCF-7 breast cancer cells; assay: In vitro anti-proliferative activity, MTT assay; format: cell-based; conditions: Homo sapiens, MCF7, read-out: In vitro anti-proliferative activities MCF-7 IC50
[2] = test system: HCT-116, HepG-2 and MCF-7 cells; format: cell-based; conditions: Homo sapiens, read-out: IC50 values against the three cell lines (range)

Row | SMILES | IC50 [1] | IC50 [2]
1 | CCSc1nnc(-c2ccc(-c3cc(OC)c(OC)c(OC)c3)nc2C)o1 [VIIIb, 2-(Ethylthio)-5-[2-methyl-6-(3,4,5-trimethoxyphenyl)pyridin-3-yl]-1,3,4-oxadiazole] | 14.8 ± 0.37 µM | –
2 | COc1cc(-c2ccc(-c3nnc(SCCCBr)o3)c(C)n2)cc(OC)c1OC [VIIIc, 2-[(3-Bromopropyl)thio]-5-[2-methyl-6-(3,4,5-trimethoxyphenyl)pyridin-3-yl]-1,3,4-oxadiazole] | 25.2 ± 0.64 µM | 10.8 to 31.5 µM
3 | CCCCCCSc1nnc(-c2ccc(-c3cc(OC)c(OC)c(OC)c3)nc2C)o1 [VIIId, 2-(Hexylthio)-5-[2-methyl-6-(3,4,5-trimethoxyphenyl)pyridin-3-yl]-1,3,4-oxadiazole] | 27.2 ± 0.68 µM | 10.8 to 31.5 µM
4 | COc1cc(-c2ccc(C(=O)N/N=C/c3ccc(O)cc3)c(C)n2)cc(OC)c1OC [Va, (E)-N′-(4-Hydroxybenzylidene)-2-methyl-6-(3,4,5-trimethoxyphenyl)nicotinohydrazide] | 21.5 ± 0.67 µM | 10.8 to 31.5 µM
5 | CCOc1ccc(/C=N/NC(=O)c2ccc(-c3cc(OC)c(OC)c(OC)c3)nc2C)cc1 [Ve, (E)-N′-(4-Ethoxybenzylidene)-2-methyl-6-(3,4,5-trimethoxyphenyl)nicotinohydrazide] | 46.6 ± 0.95 µM | –
6 | COc1cc(-c2ccc(C(=O)N/N=C/c3cc(C)ccc3C)c(C)n2)cc(OC)c1OC [Vf, (E)-N′-(2,5-Dimethylbenzylidene)-2-methyl-6-(3,4,5-trimethoxyphenyl)nicotinohydrazide] | 6.32 ± 0.14 µM | 3.25 to 9.15 µM

More lines, in order of falling IC50 [1], values ahead:

Row | IC50 [1] | IC50 [2] | SMILES
7 | 31.5 ± 0.7 µM | 10.8 to 31.5 µM | COc1cc(-c2ccc(C(=O)N/N=C/c3ccc(Cl)cc3)c(C)n2)cc(OC)c1OC [Vg, (E)-N′-(4-Chlorobenzylidene)-2-methyl-6-(3,4,5-trimethoxyphenyl)nicotinohydrazide]
8 | 30.1 ± 0.75 µM | 10.8 to 31.5 µM | COc1cc(-c2ccc(C(=O)N/N=C/c3cc(Cl)ccc3Cl)c(C)n2)cc(OC)c1OC [Vh, (E)-N′-(2,5-Dichlorobenzylidene)-2-methyl-6-(3,4,5-trimethoxyphenyl)nicotinohydrazide]
9 | 21.4 ± 0.45 µM | 10.8 to 31.5 µM | COc1cc(-c2ccc(-c3nnc(SCC4CCCCC4)o3)c(C)n2)cc(OC)c1OC [VIIIe, 2-[(Cyclohexylmethyl)thio]-5-[2-methyl-6-(3,4,5-trimethoxyphenyl)pyridin-3-yl]-1,3,4-oxadiazole]
10 | 18.2 ± 0.55 µM | 10.8 to 31.5 µM | COc1cc(-c2ccc(-c3nnc(SC)o3)c(C)n2)cc(OC)c1OC [VIIIa, 2-[2-Methyl-6-(3,4,5-trimethoxyphenyl)pyridin-3-yl]-5-(methylthio)-1,3,4-oxadiazole]
11 | 17.5 ± 0.57 µM | 10.8 to 31.5 µM | COc1cc(-c2ccc(C(=O)N/N=C/c3ccncc3)c(C)n2)cc(OC)c1OC [Vk, (E)-2-Methyl-N′-(pyridin-4-ylmethylene)-6-(3,4,5-trimethoxyphenyl)nicotinohydrazide]
12 | 15.8 ± 0.46 µM | 10.8 to 31.5 µM | COc1cc(OC)c(/C=N/NC(=O)c2ccc(-c3cc(OC)c(OC)c(OC)c3)nc2C)c(OC)c1 [Vd, (E)-2-Methyl-N′-(2,4,6-trimethoxybenzylidene)-6-(3,4,5-trimethoxyphenyl)nicotinohydrazide]
13 | 9.15 ± 0.31 µM | 3.25 to 9.15 µM | COc1ccc(/C=N/NC(=O)c2ccc(-c3cc(OC)c(OC)c(OC)c3)nc2C)cc1OC [Vc, (E)-N′-(3,4-Dimethoxybenzylidene)-2-methyl-6-(3,4,5-trimethoxyphenyl)nicotinohydrazide]
14 | 8.5 ± 0.24 µM | 3.25 to 9.15 µM | COc1ccccc1/C=N/NC(=O)c1ccc(-c2cc(OC)c(OC)c(OC)c2)nc1C [Vb, (E)-N′-(2-Methoxybenzylidene)-2-methyl-6-(3,4,5-trimethoxyphenyl)nicotinohydrazide]
15 | 4.82 ± 0.05 µM | 3.25 to 9.15 µM | COc1cc(-c2ccc(C(=O)N/N=C/c3ccc([N+](=O)[O-])cc3)c(C)n2)cc(OC)c1OC [Vj, (E)-2-Methyl-N′-(4-nitrobenzylidene)-6-(3,4,5-trimethoxyphenyl)nicotinohydrazide]
